Source: patent US11021446B2 (NOVARTIS AG, priority 2013, dated 2021)

Target: T1, human Farnesoid X Receptor (FXR) ligand binding domain (GST-FXR LBD) (Homo sapiens, UniProt Q96RI1)
T1 construct: purchased Invitrogen
T1 sequence (Q96RI1 193-472 isoform Q96RI1-2): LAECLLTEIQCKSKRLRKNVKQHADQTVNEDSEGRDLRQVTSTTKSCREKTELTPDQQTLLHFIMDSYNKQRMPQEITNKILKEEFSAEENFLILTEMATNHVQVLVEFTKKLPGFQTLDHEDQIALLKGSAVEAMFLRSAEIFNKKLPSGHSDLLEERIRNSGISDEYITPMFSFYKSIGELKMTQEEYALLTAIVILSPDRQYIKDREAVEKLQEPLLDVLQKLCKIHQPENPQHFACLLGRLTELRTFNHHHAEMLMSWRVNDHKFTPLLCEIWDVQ
Test: Human GST-FXR LBD co-activator interaction assay (FXR HTRF assay)
Format: biochemical
Conditions: GST-FXR LBD interaction with biotin-labeled SRC-1 peptide, FRET, response relative to GW4064, read-out: FXR coactivator interaction assay (HTRF)
From the text: Human GST-FXR LBD Co-Activator Interaction Assay
The FXR HTRF assay is a biochemical assay measuring the interaction between FXR and a coactivator protein (SRC1). The ligand-induced interaction with a coactivator protein is a critical step in transcriptional activation by FXR. Thus, this is an assay designed to measure FXR agonist activity of the test compounds.
Recombinant human Farnesoid X Receptor (FXR) ligand binding domain (amino acids 193-472) fused to glutathione S-transferase (GST) purified protein (GST-FXR LBD) was purchased (Invitrogen). The ligand-dependent interaction between GST-FXR LBD and a peptide derived from Steroid Receptor Coactivator-1 (SRC-1) was monitored by Fluorescence Resonance Energy Transfer (FRET). […] Test compounds (in DMSO solution) and detection reagents (anti-GST-Cryptate labeled antibody and Streptavidin-XL665 conjugate; CisBio) were added in assay buffer containing 50 mM KF. Plates are incubated at room temperature in the dark for 2.5 hrs before reading on an Envision (PerkinElmer) at 665 nm and 590 nm. The HTRF assay results were calculated from the 665 nm/590 nm ratio (ratio=(A665 nm/A590 nm)×10^4) and expressed in Delta F %=(Ratiosample−Rationegative)/Rationegative×100.
A negative control (without Streptavidin-XL665) was run with each assay and represented the background fluorescence. A reference FXR agonist, (E)-3-(2-chloro-4-((3-(2,6-dichlorophenyl)-5-isopropylisoxazol-4-yl)methoxy)styryl)benzoic acid (Compound GW4064), was included in each experiment as positive control. The efficacy of each test compound was compared to that of GW4064. At each concentration, the relative activity of the test compound was expressed as Response %=(Rsample−RDMSO)/(Rpositive−RDMSO), where Rsample is the HTRF response (expressed in Delta F %) for the test compound, Rpositive is the maximal response for GW4064 at saturating concentrations, and RDMSO is the response for DMSO control. The EC50 values were calculated using GraphPad Prism (GraphPad Software) using non-linear regression curve fit (log(agonist) vs. response-variable slope (four parameters)).

| SMILES | EC50 [nM] |
| --- | --- |
| Cn1nc(C(=O)N(CCOc2ccc(C(=O)O)cc2F)Cc2cccc(F)c2)c2c1-c1cc(F)c(F)cc1OC2 [Compound 59, 4-(2-(7,8-difluoro-N-(3-fluorobenzyl)-1-methyl-1,4-dihydrochromeno[4,3-c]pyrazole-3-carboxamido)ethoxy)-3-fluorobenzoic acid] | 28 |
| Cn1nc(C(=O)N(CCOc2ccc(C(=O)O)cc2F)Cc2ccccc2F)c2c1-c1cc(F)ccc1OC2 [Compound 61, 3-fluoro-4-(2-(8-fluoro-N-(2-fluorobenzyl)-1-methyl-1,4-dihydrochromeno[4,3-c]pyrazole-3-carboxamido)ethoxy)benzoic Acid] | 89 |
| Cn1nc(C(=O)N(CCOc2ccc(C(=O)O)cc2F)Cc2ccccc2F)c2c1-c1cc(F)c(F)cc1OC2 [Compound 62, 4-(2-(7,8-difluoro-N-(2-fluorobenzyl)-1-methyl-1,4-dihydrochromeno[4,3-c]pyrazole-3-carboxamido)ethoxy)-3-fluorobenzoic acid] | 74 |
| Cn1nc(C(=O)N(CCNc2cc(C(=O)O)ccc2F)Cc2ccccc2F)c2c1-c1cc(F)ccc1OC2 [Compound 69, 4-fluoro-3-((2-(8-fluoro-N-(2-fluorobenzyl)-1-methyl-1,4-dihydrochromeno[4,3-c]pyrazole-3-carboxamido)ethyl)amino)benzoic acid] | 25 |
| Cn1nc(C(=O)N(CCNc2cc(C(=O)O)ccc2F)Cc2ccccc2F)c2c1-c1ccccc1OC2 [Compound 70, 4-fluoro-3-((2-(N-(2-fluorobenzyl)-1-methyl-1,4-dihydrochromeno[4,3-c]pyrazole-3-carboxamido)ethyl)amino)benzoic acid] | 81 |
| Cn1nc(C(=O)N(CCNc2cc(C(=O)O)ccc2F)Cc2ccccc2)c2c1-c1cc(F)ccc1OC2 [Compound 71, 3-((2-(N-benzyl-8-fluoro-1-methyl-1,4-dihydrochromeno[4,3-c]pyrazole-3-carboxamido)ethyl)amino)-4-fluorobenzoic acid] | 22 |
| Cn1nc(C(=O)N(CCNc2cc(C(=O)O)ccc2F)Cc2ccccc2)c2c1-c1cc(F)c(F)cc1OC2 [Compound 74, 3-((2-(N-benzyl-7,8-difluoro-1-methyl-1,4-dihydrochromeno[4,3-c]pyrazole-3-carboxamido)ethyl)amino)-4-fluorobenzoic acid] | 55 |
| Cn1nc(C(=O)N(Cc2ccccc2)Cc2ccc(C(=O)O)cc2F)c2c1-c1cc(F)ccc1OC2 [Compound 79, 4-((N-benzyl-8-fluoro-1-methyl-1,4-dihydrochromeno[4,3-c]pyrazole-3-carboxamido)methyl)-3-fluorobenzoic acid] | 22 |
| Cc1cccc(CN(Cc2ccc(C(=O)O)cc2F)C(=O)c2nn(C)c3c2COc2ccc(F)cc2-3)c1 [Compound 85, 3-fluoro-4-((8-fluoro-1-methyl-N-(3-methylbenzyl)-1,4-dihydrochromeno[4,3-c]pyrazole-3-carboxamido)methyl)benzoic acid] | 35 |
| Cn1nc(C(=O)N(Cc2ccc(C(=O)O)nc2)Cc2cccc(F)c2)c2c1-c1cc(Cl)ccc1OC2 [Compound 87, 5-((8-chloro-N-(3-fluorobenzyl)-1-methyl-1,4-dihydrochromeno[4,3-c]pyrazole-3-carboxamido)methyl)picolinic acid] | 28 |

Compounds with a lower EC50, results first:

| EC50 [nM] | SMILES |
| --- | --- |
| 21 | Cn1nc(C(=O)N(Cc2ccc(C(=O)O)cc2)Cc2cccc(F)c2F)c2c1-c1cc(Cl)ccc1OC2 [Compound 81, 4-((8-chloro-N-(2,3-difluorobenzyl)-1-methyl-1,4-dihydrochromeno[4,3-c]pyrazole-3-carboxamido)methyl)benzoic acid] |
| 20 | Cn1nc(C(=O)N(CCNc2cc(C(=O)O)ccc2F)Cc2cccc(F)c2)c2c1-c1cc(F)c(F)cc1OC2 [Compound 73, 3-((2-(7,8-difluoro-N-(3-fluorobenzyl)-1-methyl-1,4-dihydrochromeno[4,3-c]pyrazole-3-carboxamido)ethyl)amino)-4-fluorobenzoic acid] |
| 18 | Cc1cccc(CN(Cc2ccc(C(=O)O)cc2F)C(=O)c2nn(C)c3c2COc2ccc(Cl)cc2-3)c1 [Compound 84, 4-((8-chloro-1-methyl-N-(3-methylbenzyl)-1,4-dihydrochromeno[4,3-c]pyrazole-3-carboxamido)methyl)-3-fluorobenzoic acid] |
| 16 | Cc1cccc(CN(Cc2ccc(C(=O)O)cc2)C(=O)c2nn(C)c3c2COc2ccc(Cl)cc2-3)c1 [Compound 80, 4-((8-chloro-1-methyl-N-(3-methylbenzyl)-1,4-dihydrochromeno[4,3-c]pyrazole-3-carboxamido)methyl)benzoic acid] |
| 14 | Cn1nc(C(=O)N(Cc2ccc(C(=O)O)cc2)Cc2cc(F)cc(F)c2)c2c1-c1cc(F)ccc1OC2 [Compound 83, 4-((N-(3,5-difluorobenzyl)-8-fluoro-1-methyl-1,4-dihydrochromeno[4,3-c]pyrazole-3-carboxamido)methyl)benzoic acid] |
| 12 | Cc1cc(F)cc(CN(Cc2ccc(C(=O)O)cc2)C(=O)c2nn(C)c3c2COc2ccc(Cl)cc2-3)c1 [Compound 82, 4-((8-chloro-N-(3-fluoro-5-methylbenzyl)-1-methyl-1,4-dihydrochromeno[4,3-c]pyrazole-3-carboxamido)methyl)benzoic acid] |
| 12 | Cn1nc(C(=O)N(Cc2ccc(C(=O)O)cc2)Cc2ccc3[nH]ccc3c2)c2c1-c1cc(Cl)ccc1OC2 [Compound 86, 4-((N-((1H-indol-5-yl)methyl)-8-chloro-1-methyl-1,4-dihydrochromeno[4,3-c]pyrazole-3-carboxamido)methyl)benzoic acid] |
| 9.6 | Cn1nc(C(=O)N(Cc2ccccc2)Cc2ccc(C(=O)O)cc2F)c2c1-c1cc(Cl)ccc1OC2 [Compound 76, 4-((N-benzyl-8-chloro-1-methyl-1,4-dihydrochromeno[4,3-c]pyrazole-3-carboxamido)methyl)-3-fluorobenzoic acid] |
| 8.3 | Cn1nc(C(=O)N(Cc2ccc(C(=O)O)cc2)Cc2cc(F)cc(F)c2)c2c1-c1cc(Cl)ccc1OC2 [Compound 78, 4-((8-chloro-N-(3,5-difluorobenzyl)-1-methyl-1,4-dihydrochromeno[4,3-c]pyrazole-3-carboxamido)methyl)benzoic acid] |
| 7.9 | Cn1nc(C(=O)N(Cc2ccc(C(=O)O)cc2)Cc2cccc(F)c2)c2c1-c1cc(F)ccc1OC2 [Compound 77, 4-((8-fluoro-N-(3-fluorobenzyl)-1-methyl-1,4-dihydrochromeno[4,3-c]pyrazole-3-carboxamido)methyl)benzoic acid] |
| 7 | Cn1nc(C(=O)N(CCNc2cc(C(=O)O)ccc2F)Cc2cccc(F)c2)c2c1-c1cc(Cl)ccc1OC2 [Compound 65, 3-((2-(8-chloro-N-(3-fluorobenzyl)-1-methyl-1,4-dihydrochromeno[4,3-c]pyrazole-3-carboxamido)ethyl)amino)-4-fluorobenzoic Acid] |
| 6 | Cn1nc(C(=O)N(CCNc2cccc(C(=O)O)c2)Cc2ccccc2F)c2c1-c1cc(Cl)ccc1OC2 [Compound 63, 3-((2-(8-chloro-N-(2-fluorobenzyl)-1-methyl-1,4-dihydrochromeno[4,3-c]pyrazole-3-carboxamido)ethyl)amino)benzoic Acid] |
| 6 | Cn1nc(C(=O)N(Cc2ccccc2)Cc2ccc(C(=O)O)cc2)c2c1-c1cc(Cl)ccc1OC2 [Compound 75, 4-((N-benzyl-8-chloro-1-methyl-1,4-dihydrochromeno[4,3-c]pyrazole-3-carboxamido)methyl)benzoic Acid] |
| 2.6 | Cn1nc(C(=O)N(CCNc2cc(C(=O)O)ccc2F)Cc2ccccc2)c2c1-c1cc(Cl)ccc1OC2 [Compound 72, 3-((2-(N-benzyl-8-chloro-1-methyl-1,4-dihydrochromeno[4,3-c]pyrazole-3-carboxamido)ethyl)amino)-4-fluorobenzoic acid] |
| 0.6 | Cn1nc(C(=O)N(CC(=O)Nc2cc(C(=O)O)ccc2F)Cc2ccccc2F)c2c1-c1cc(Cl)ccc1OC2 [Compound 64, 3-(2-(8-chloro-N-(2-fluorobenzyl)-1-methyl-1,4-dihydrochromeno[4,3-c]pyrazole-3-carboxamido)acetamido)-4-fluorobenzoic Acid] |
